This test concerns the target T1, soluble guanylate cyclase (human GUCYA3/GUCYB3) overexpressed in CHO cells (Homo sapiens, UniProt Q02108+Q02153).
T1 construct: expressed in transfected cells
T1 sequence (Q02108 1-690 partner): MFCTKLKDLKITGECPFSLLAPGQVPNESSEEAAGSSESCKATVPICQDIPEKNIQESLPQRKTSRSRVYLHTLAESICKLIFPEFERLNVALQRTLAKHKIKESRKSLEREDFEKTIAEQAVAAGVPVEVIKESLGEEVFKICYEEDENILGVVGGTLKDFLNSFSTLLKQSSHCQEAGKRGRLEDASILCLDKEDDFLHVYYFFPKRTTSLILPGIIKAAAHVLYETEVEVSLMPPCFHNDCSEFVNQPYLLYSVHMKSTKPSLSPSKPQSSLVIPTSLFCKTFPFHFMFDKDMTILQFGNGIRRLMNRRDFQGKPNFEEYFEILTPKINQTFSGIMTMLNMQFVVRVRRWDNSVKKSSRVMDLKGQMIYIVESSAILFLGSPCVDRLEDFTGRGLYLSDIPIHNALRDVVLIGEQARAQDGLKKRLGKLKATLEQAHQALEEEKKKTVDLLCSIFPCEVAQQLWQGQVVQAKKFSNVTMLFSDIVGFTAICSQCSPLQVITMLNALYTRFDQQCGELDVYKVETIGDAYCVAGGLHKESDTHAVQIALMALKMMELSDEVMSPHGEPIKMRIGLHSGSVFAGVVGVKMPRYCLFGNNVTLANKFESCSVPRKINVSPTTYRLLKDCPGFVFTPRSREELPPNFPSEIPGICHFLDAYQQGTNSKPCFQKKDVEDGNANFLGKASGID
T1 sequence (Q02153 1-619): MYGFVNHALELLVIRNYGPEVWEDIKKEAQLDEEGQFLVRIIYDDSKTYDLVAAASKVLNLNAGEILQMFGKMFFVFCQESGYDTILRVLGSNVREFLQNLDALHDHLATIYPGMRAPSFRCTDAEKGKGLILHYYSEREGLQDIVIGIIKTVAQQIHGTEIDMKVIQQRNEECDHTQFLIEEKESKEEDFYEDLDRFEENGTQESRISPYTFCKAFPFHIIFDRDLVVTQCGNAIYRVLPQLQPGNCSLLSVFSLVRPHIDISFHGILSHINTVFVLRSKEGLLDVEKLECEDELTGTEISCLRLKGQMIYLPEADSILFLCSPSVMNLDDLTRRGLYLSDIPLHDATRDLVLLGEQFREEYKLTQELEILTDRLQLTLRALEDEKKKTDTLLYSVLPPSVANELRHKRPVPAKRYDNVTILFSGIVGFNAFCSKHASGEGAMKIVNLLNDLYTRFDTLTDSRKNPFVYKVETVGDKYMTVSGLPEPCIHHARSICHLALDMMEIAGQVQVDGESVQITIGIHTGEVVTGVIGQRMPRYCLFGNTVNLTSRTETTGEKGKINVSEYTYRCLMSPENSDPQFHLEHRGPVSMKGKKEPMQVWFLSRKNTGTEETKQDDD
Description: CHO cellular assay (cGMP production, HTRF). The format is cell-based. The following applies: CHO K1 clone 8E10 overexpressing human sGC, Cisbio HTRF, 1 h room temperature, 1 mM IBMX, 20 uM ODQ, minimum quantification limit 0.5 nM. Summed up: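 Stable CHO K1 clone expressing human GUCYA3/GUCYB3. Compounds applied 1 h at room temperature in HBSS, 0.1% BSA, 1 mM IBMX, 20 uM ODQ, 0.5% DMSO. cGMP measured by HTRF and interpolated from a standard curve; EC50 from 4-parameter sigmoidal fit.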
Background: TR-FRET usually uses a lanthanide donor and a delayed reading to cut background.

The structures appear in SMILES notation. Where “and” joins values, the source holds several entries; their conditions need not be identical. Equal values may be shown once. A value given as a limit tells only on which side of the number the result lay.

One may read the EC50 as the concentration giving half of the maximal effect. With `CCc1cc(OCc2cc(C)sc2-c2cccc(-n3ncc(C(=O)O)c3C(F)(F)F)n2)ccc1C1CCN(C(=O)CC2CC2)CC1` [Example 12-4, 1-(6-(3-((4-(1-(2-Cyclopropylacetyl)piperidin-4-yl)-3-ethylphenoxy)methyl)-5-methylthiophen-2-yl)pyridin-2-yl)-5-(trifluoromethyl)-1H-pyrazole-4-carboxylic acid], the EC50 is not above 0.5 nM.

Consider `Cc1cc(C2CCN(C(=O)C3CC(O)C3)CC2)ccc1OCc1ccsc1-c1cccc(-n2ncc(C(=O)O)c2C(F)(F)F)n1` (stereo not drawn) [Example 12-5, 1-(6-(3-((4-(1-(3-Hydroxycyclobutanecarbonyl)piperidin-4-yl)-2-methylphenoxy)methyl)thiophen-2-yl)pyridin-2-yl)-5-(trifluoromethyl)-1H-pyrazole-4-carboxylic acid], for which the midpoint of the response, the EC50, lay at 46 nM.

In the case of `Cc1cc(C2CCN(C(=O)C3COC3)CC2)ccc1OCc1ccsc1-c1cccc(-n2ncc(C(=O)O)c2C(F)(F)F)n1` [Example 12-7, 1-(6-(3-((2-Methyl-4-(1-(oxetane-3-carbonyl)piperidin-4-yl)phenoxy)methyl)thiophen-2-yl)pyridin-2-yl)-5-(trifluoromethyl)-1H-pyrazole-4-carboxylic acid], the response was half-maximal at 7.5 nM (EC50).

In the case of `CCc1cc(OCc2cc(C)sc2-c2cccc(-n3ncc(C(=O)O)c3C)n2)ccc1C1CCN(C(=O)CC2CC2)CC1` [Example 12-8, 1-(6-(3-((4-(1-(2-Cyclopropylacetyl)piperidin-4-yl)-3-ethylphenoxy)methyl)-5-methylthiophen-2-yl)pyridin-2-yl)-5-methyl-1H-pyrazole-4-carboxylic acid], the EC50 is 4.4 nM and 1 nM.

As to `CCc1cc(OCc2cc(C)sc2-c2cccc(-n3ncc(C(=O)O)c3C(F)(F)F)n2)ccc1C1CCN(C(=O)C(C)(C)CO)CC1` [Example 12-10, 1-(6-(3-((3-Ethyl-4-(1-(3-hydroxy-2,2-dimethylpropanoyl)piperidin-4-yl)phenoxy)methyl)-5-methylthiophen-2-yl)pyridin-2-yl)-5-(trifluoromethyl)-1H-pyrazole-4-carboxylic acid], it took 33 nM to reach a half-maximal effect (EC50).

`CCc1cc(OCc2cc(C)sc2-c2cccc(-n3ncc(C(=O)O)c3C(F)(F)F)n2)ccc1C1CCN(C(=O)CO)CC1` [Example 12-11, 1-(6-(3-((3-Ethyl-4-(1-(2-hydroxyacetyl)piperidin-4-yl)phenoxy)methyl)-5-methylthiophen-2-yl)pyridin-2-yl)-5-(trifluoromethyl)-1H-pyrazole-4-carboxylic acid] registered an EC50 of 36 nM.

Turning to `Cc1cc(C2CCN(CC(F)(F)F)CC2)ccc1OCc1ccsc1-c1cccc(-n2ncc(C(=O)O)c2C(F)(F)F)n1` [Example 13, 1-(6-(3-((2-Methyl-4-(1-(2,2,2-trifluoroethyl)piperidin-4-yl)phenoxy)methyl)thiophen-2-yl)pyridin-2-yl)-5-(trifluoromethyl)-1H-pyrazole-4-carboxylic acid], the EC50 was 1 nM.

The molecule `O=C(O)c1cnn(-c2cccc(-c3sccc3COc3ccc(C4CCN(CC(F)(F)F)CC4)cc3)n2)c1C(F)(F)F` [Example 14-1, 1-(6-(3-((4-(1-(2,2,2-Trifluoroethyl)piperidin-4-yl)phenoxy)methyl)thiophen-2-yl)pyridin-2-yl)-5-(trifluoromethyl)-1H-pyrazole-4-carboxylic acid] registered an EC50 of 12 nM.

Molecule `Cc1cc(C2CCN(CC3CC3)CC2)ccc1OCc1ccsc1-c1cccc(-n2ncc(C(=O)O)c2C(F)(F)F)n1` [Example 14-2, 1-(6-(3-((4-(1-(Cyclopropylmethyl)piperidin-4-yl)-2-methylphenoxy)methyl)thiophen-2-yl)pyridin-2-yl)-5-(trifluoromethyl)-1H-pyrazole-4-carboxylic acid] showed an EC50 of 430 nM.

`Cc1cc(C2CCN(C(=O)C3CC3)CC2)ccc1NCc1ccsc1-c1cccc(-n2ncc(C(=O)O)c2C)n1` [Example 15, 1-(6-(3-(((4-(1-(Cyclopropanecarbonyl)piperidin-4-yl)-2-methylphenyl)amino)methyl)thiophen-2-yl)pyridin-2-yl)-5-methyl-1H-pyrazole-4-carboxylic acid] came in with an EC50 not above 0.5 nM.

As for `Cc1cc(C2CCN(C(=O)C3CC3)CC2)ccc1NCc1ccsc1-c1cccc(-n2ncc(C(=O)O)c2C(F)(F)F)n1` [Example 16-1, 1-(6-(3-(((4-(1-(Cyclopropanecarbonyl)piperidin-4-yl)-2-methylphenyl)amino)methyl)thiophen-2-yl)pyridin-2-yl)-5-(trifluoromethyl)-1H-pyrazole-4-carboxylic acid], the EC50 was 8.8 nM.

`Cc1cc(CNc2ccc(C3CCN(C(=O)C4CC4)CC3)cc2C)c(-c2cccc(-n3ncc(C(=O)O)c3C)n2)s1` [Example 16-2, 1-(6-(3-(((4-(1-(Cyclopropanecarbonyl)piperidin-4-yl)-2-methylphenyl)amino)methyl)-5-methylthiophen-2-yl)pyridin-2-yl)-5-methyl-1H-pyrazole-4-carboxylic acid] yielded an EC50 of 1 nM.

`Cc1cc(CNc2ccc(C3CCN(C(=O)C4CC4)CC3)cc2)c(-c2cccc(-n3ncc(C(=O)O)c3C)n2)s1` [Example 16-3, 1-(6-(3-(((4-(1-(Cyclopropanecarbonyl)piperidin-4-yl)phenyl)amino)methyl)-5-methylthiophen-2-yl)pyridin-2-yl)-5-methyl-1H-pyrazole-4-carboxylic acid] displayed an EC50 not above 0.5 nM.

`CCc1c(C)sc(-c2cccc(-n3ncc(C(=O)O)c3C(F)(F)F)n2)c1COc1ccc(C2CCN(C(=O)C3CC3)CC2)cc1C` [Example 17, 1-(6-(3-((4-(1-(Cyclopropanecarbonyl)piperidin-4-yl)-2-methylphenoxy)methyl)-4-ethyl-5-methylthiophen-2-yl)pyridin-2-yl)-5-(trifluoromethyl)-1H-pyrazole-4-carboxylic acid] yielded an EC50 of 1 nM.

Turning to `Cc1cc(C2CCN(C(=O)C3CC3)CC2)ccc1OCc1c(-c2cccc(-n3ncc(C(=O)O)c3C(F)(F)F)n2)sc(C)c1C(C)C` [Example 18-1, 1-(6-(3-((4-(1-(Cyclopropanecarbonyl)piperidin-4-yl)-2-methylphenoxy)methyl)-4-isopropyl-5-methylthiophen-2-yl)pyridin-2-yl)-5-(trifluoromethyl)-1H-pyrazole-4-carboxylic acid], the midpoint of the response, the EC50, lay at 7 nM.

On to `CCc1c(C(=O)O)cnn1-c1cccc(-c2sc(C)cc2COc2ccc(C3CCN(CC(F)(F)F)CC3)cc2C)n1` [Example 18-2, 5-Ethyl-1-(6-(5-methyl-3-((2-methyl-4-(1-(2,2,2-trifluoroethyl)piperidin-4-yl)phenoxy)methyl)thiophen-2-yl)pyridin-2-yl)-1H-pyrazole-4-carboxylic acid], for which the EC50 was determined as 2 nM.

The molecule `CCc1c(C(=O)O)cnn1-c1cccc(-c2sc(C)c(C)c2COc2ccc(C3CCN(CC(F)(F)F)CC3)cc2C)n1` [Example 18-3, 1-(6-(4,5-Dimethyl-3-((2-methyl-4-(1-(2,2,2-trifluoroethyl)piperidin-4-yl)phenoxy)methyl)thiophen-2-yl)pyridin-2-yl)-5-ethyl-1H-pyrazole-4-carboxylic acid] had an EC50 of 2 nM.

With `CCc1csc(-c2cccc(-n3ncc(C(=O)O)c3C(F)(F)F)n2)c1COc1ccc(C2CCN(C(=O)C3CC3)CC2)cc1C` [Example 18-4, 1-(6-(3-((4-(1-(Cyclopropanecarbonyl)piperidin-4-yl)-2-methylphenoxy)methyl)-4-ethylthiophen-2-yl)pyridin-2-yl)-5-(trifluoromethyl)-1H-pyrazole-4-carboxylic acid], a half-maximal response (EC50) required 5.9 nM.

Source of the values: patent US9765067B2, “Thiophen-2-yl-pyridin-2-yl-1H-pyrazole-4-carboxylic acid derivatives and the use thereof as soluble guanylate cyclase activators” (Novartis AG, priority 2014, dated 2017).
